# Earlier results, collected in US20220023314A1, “STABLE FORMULATIONS OF ANESTHETICS AND […] FORMS” (HALO SCIENCE LLC, priority 2018, published 2022).
# Conditions: in vivo
smiles,measurement,value
C[C@]12CC[C@@H](O)C[C@@H]1CC[C@H]1[C@@H]3CC[C@H](C(=O)CO)[C@@]3(C)CC(=O)[C@@H]12 [Alphadolone],potency relative to alphaxalone,half as potent
